This note sets out measurements from patent publication EP1712550A2, “Substituted triazole diamine derivatives as kinase inhibitors” (priority 2000, dated 2002).

Common to all, as to format: biochemical
Assay [1] has as its target T1, EGFR (epidermal growth factor receptor) (Homo sapiens, UniProt P00533).
T1 construct: is purified from human A431 cell membranes (Sigma, St. Louis, MO, Cat.# E3641); purchased Sigma, St. Louis, MO E3641; host or cells: human A431 cell membranes (endogenous protein)
Put plainly: Kinase Selectivity Assay EGF-R.

The target in assay [2] is T2, VEGF-R (vascular endothelial growth factor receptor-2) (Rattus norvegicus, UniProt O08775).
T2 construct: 6xHis (polyhistidine) (N)
Put plainly: VEGF-R Screening Assay. The following applies: read-out: Kinase Assay (IC50 uM) VEGF-R. The procedure: 70 µL of the kinase reaction mixture was dispensed into the well of a streptavidin coated FlashPlate™ (Cat. # SMP103, NEN, Boston, MA). Then 1 µL of test compound stock in 100% DMSO was added to the wells resulting in a final concentration of 1% DMSO in the reaction with a 100 µL final reaction volume. Next, soluble rat tyrosine kinase containing an N-terminal 6XHIS tag was diluted in 50 mM Tris-HCl pH=8.0, 0.1% BSA at a concentration of 5 ng per µL and 30 µL (150 ng enzyme per test well) was added to each well to initiate the reaction. The reaction was incubated for one hour at 30°C. At the end of the 1-hour incubation, the reaction was terminated by aspirating the reaction mixture from the plate and washing the wells twice with PBS containing 100 mM EDTA. The PLC1 biotinylated peptide substrate became immobilized on the Flashplate™ and the incorporation of ^33P-γ-ATP was measured by reading the plate on a scintillation counter. Inhibition of the enzymatic activity of the VEGF-R was measured by observing a reduced amount of ^33P-γ-ATP incorporated into the immobilized peptide. […]

The target of assay [3] is T3, HER2 (human epidermal growth factor receptor-2) (Homo sapiens, UniProt P04626).
T3 construct: begins at amino acid 676 followed by the remainder of the HER2 cytoplasmic domain; polyhistidine (N)
The assay is described as follows: Kinase Selectivity Assay HER2.

[4] abbreviates: read-out: Kinase Assay (IC50 uM) EGF-R.
[5] abbreviates: Kinase Selectivity, Table 2, read-out: EGF-R IC50.
The mark [6] stands for this setting: read-out: Kinase Assay (IC50 uM) HER2 Kinase.

Read-outs that look alike come from different tables or passages of the source.

T1 sequence (P00533 25-1210): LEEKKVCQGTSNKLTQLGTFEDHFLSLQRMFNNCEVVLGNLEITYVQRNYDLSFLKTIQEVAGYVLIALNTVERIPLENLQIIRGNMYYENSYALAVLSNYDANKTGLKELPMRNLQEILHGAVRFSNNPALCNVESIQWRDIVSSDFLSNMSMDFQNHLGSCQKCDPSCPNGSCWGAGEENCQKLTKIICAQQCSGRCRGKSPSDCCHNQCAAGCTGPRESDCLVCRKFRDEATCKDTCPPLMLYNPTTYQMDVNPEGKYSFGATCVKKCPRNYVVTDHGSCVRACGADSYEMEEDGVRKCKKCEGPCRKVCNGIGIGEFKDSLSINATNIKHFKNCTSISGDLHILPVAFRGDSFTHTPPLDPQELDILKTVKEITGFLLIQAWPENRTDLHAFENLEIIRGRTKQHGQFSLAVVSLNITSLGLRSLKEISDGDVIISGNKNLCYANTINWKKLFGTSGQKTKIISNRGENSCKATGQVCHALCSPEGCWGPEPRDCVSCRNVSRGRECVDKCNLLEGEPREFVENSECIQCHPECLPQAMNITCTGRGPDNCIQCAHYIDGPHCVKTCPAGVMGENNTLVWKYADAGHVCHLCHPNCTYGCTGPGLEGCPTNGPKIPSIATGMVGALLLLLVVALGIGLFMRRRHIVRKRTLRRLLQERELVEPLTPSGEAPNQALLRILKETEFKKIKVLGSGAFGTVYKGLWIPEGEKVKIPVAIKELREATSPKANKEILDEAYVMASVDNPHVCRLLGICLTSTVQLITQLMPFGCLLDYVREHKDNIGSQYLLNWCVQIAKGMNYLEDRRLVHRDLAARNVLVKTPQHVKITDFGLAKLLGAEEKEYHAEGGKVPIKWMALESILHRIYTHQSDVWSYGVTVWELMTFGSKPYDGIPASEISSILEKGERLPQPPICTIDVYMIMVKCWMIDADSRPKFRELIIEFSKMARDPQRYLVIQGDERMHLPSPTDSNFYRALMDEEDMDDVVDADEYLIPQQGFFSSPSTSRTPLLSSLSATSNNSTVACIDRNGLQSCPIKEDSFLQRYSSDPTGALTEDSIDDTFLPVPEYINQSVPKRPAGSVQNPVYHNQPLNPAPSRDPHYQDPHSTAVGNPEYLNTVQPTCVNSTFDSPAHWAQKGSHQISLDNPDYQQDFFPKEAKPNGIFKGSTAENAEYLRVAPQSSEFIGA
T3 sequence (P04626 676-1255 limits assumed): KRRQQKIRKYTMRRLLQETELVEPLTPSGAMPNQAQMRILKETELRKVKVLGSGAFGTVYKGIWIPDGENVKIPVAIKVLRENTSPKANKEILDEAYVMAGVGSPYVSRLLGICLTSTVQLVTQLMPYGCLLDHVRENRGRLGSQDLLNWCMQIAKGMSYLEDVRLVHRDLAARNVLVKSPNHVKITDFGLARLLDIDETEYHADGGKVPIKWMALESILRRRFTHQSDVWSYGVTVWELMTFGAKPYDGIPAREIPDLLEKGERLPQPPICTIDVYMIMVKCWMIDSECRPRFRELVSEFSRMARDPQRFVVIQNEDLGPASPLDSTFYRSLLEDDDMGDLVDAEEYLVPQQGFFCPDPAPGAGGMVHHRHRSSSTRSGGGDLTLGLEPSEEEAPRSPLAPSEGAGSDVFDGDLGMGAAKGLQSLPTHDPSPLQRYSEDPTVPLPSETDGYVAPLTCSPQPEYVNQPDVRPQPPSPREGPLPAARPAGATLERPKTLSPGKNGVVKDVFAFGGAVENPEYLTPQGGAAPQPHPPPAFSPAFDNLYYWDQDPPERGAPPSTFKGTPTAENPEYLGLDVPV
T2 sequence (O08775 786-1343): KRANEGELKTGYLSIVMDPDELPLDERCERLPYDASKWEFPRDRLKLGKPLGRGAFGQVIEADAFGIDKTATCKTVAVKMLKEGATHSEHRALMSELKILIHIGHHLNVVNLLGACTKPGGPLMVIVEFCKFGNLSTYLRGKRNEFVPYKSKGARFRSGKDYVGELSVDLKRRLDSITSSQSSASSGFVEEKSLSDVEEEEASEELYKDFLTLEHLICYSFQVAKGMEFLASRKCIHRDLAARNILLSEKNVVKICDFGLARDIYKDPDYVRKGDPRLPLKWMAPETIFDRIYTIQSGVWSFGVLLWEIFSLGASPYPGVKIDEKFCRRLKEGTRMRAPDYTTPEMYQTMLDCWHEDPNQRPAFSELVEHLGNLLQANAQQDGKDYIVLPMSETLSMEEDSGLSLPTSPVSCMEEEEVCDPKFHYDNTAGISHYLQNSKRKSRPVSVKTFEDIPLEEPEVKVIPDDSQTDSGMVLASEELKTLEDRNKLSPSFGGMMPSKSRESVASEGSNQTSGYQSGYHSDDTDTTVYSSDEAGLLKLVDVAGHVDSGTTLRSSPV

As to `Cc1cc(C)c(C(=O)n2nc(Nc3ccc(-n4ccnc4)cc3)nc2N)s1` [Cpd 92, 1-[(3,5-diinethyl-2-thienyl)carbonyl]-N^3-[4-(1H-imidazol-1-yl)phenyl]-1H-1,2,4-triazole-3,5-diamine], the half-inhibitory concentration (IC50) in assay [1] (setting [4]) was greater than 100 µM.
On to `Nc1nc(Nc2ccc(S(N)(=O)=O)cc2)nn1C(=O)c1c(F)cccc1F` [Cpd 1, 4-[[5-amino-1-(2,6-difluorobenzoyl)-1H-1,2,4-triazol-3-yl]amino]-benzenesulfonamide], for which the concentration for half-maximal inhibition (IC50) in assay [1] (setting [5]) is greater than 100 µM.
Same read-out and setting: with `Nc1nc(Nc2ccc(S(N)(=O)=O)cc2)nn1C(=O)c1cccs1` [Cpd 14, 4-[[5-amino-1-(2-thienylcarbonyl)-1H-1,2,4-triazol-3-yl]amino]-benzenesulfonamide] the figure was 1.92 µM.
Regarding `CCc1ccc(C(=O)n2nc(Nc3ccc(S(=O)(=O)NC)cc3)nc2N)s1` [Cpd 84, 4-[[5-amino-1-[(5-ethyl-2-thienyl)carbonyl]-1H-1,2,4-triazol-3-yl]amino]-N-methyl-benzenesulfonamide], the results for the IC50 in assay [2], in assay [3] (setting [6]) and in assay [1] (setting [4]) were 0.043 µM, 0.052 µM and greater than 10 µM, respectively.
With `Cc1ccsc1C(=O)n1nc(Nc2ccc(N3CCNC3=O)cc2)nc1N` [Cpd 113, 1-[4-[[5-amino-1-[(3-methyl-2-thienyl)carbonyl]-1H-1,2,4-triazol-3-yl]amino]phenyl]-2-imidazolidinone], the IC50 in assay [1] (setting [4]) was greater than 10 µM.
On the same count and under the same terms, as for `CC(C)(C)c1ccc(C(=O)n2nc(Nc3ccc(S(N)(=O)=O)cc3)nc2N)s1` [Cpd 51, 4-[[5-amino-1-[[5-(1,1-dimethylethyl)-2-thienyl]carbonyl]-1H-1,2,4-triazol-3-yl]amino]-benzenesulfonamide], the figure is 1.1 µM.
In the case of `Nc1nc(Nc2ccc(S(N)(=O)=O)cc2)nn1C(=O)c1sccc1F` [Cpd 16, 4-[[5-amino-1-[(3-fluoro-2-thienyl)carbonyl]-1H-1,2,4-triazol-3-yl]amino]-benzenesulfonamide], the half-maximal inhibitory concentration (IC50) in assay [1] (setting [5]) was greater than 100 µM.
In the case of `CCc1ccc(C(=O)n2nc(Nc3ccc(S(=O)(=O)NCCN(C)C)cc3)nc2N)s1` [Cpd 103, 4-[[5-amino-1-[(5-ethyl-2-thienyl)carbonyl]-1H-1,2,4-triazol-3-yl]amino]-N-[2-(dimethylamino)ethyl]-benzenesulfonamide], the IC50 in assay [1] (setting [4]) was greater than 10 µM.
In the case of `CCc1ccc(C(=O)n2nc(Nc3ccc(S(N)(=O)=O)cc3)nc2N)s1` [Cpd 32, 4-[[5-amino-1-[(5-ethyl-2-thienyl)carbonyl]-1H 1,2,4-triazol-3-yl]amino]-benzenesulfonamide], the half-inhibitory concentration (IC50) in assay [1] (setting [5]) is greater than 100 µM.
Turning to `Cc1ccsc1C(=O)n1nc(Nc2ccc(S(=O)(=O)NCCN(C)C)cc2)nc1N` [Cpd 104, 4-[[5-amino-1-[(3-methyl-2-thienyl)carbonyl]-1H-1,2,4-triazol-3-yl]amino]-N-[2-(dimethylamino)ethyl]-benzenesulfonamide], the 50% inhibitory concentration (IC50) in assay [2] was 0.016 µM; in assay [3] (setting [6]) it was 0.202 µM; in assay [1] (setting [4]) it was greater than 10 µM.
As to `Cc1ccsc1C(=O)n1nc(Nc2ccc(N3CCCS3(=O)=O)cc2)nc1N` [Cpd 116, N^3-[4-(1,1-dioxido-2-isothiazolidinyl)phenyl]-1-[(3-methyl-2-thienyl)carbonyl]-1H-1,2,4-triazole-3,5-diamine], the IC50 in assay [1] (setting [4]) was greater than 100 µM.
`Cc1ccccc1C(=O)n1nc(Nc2ccc(S(N)(=O)=O)cc2)nc1N` [Cpd 57, 4-[[5-amino-1-(2-methylbenzoyl)-1H-1,2,4-triazol-3-yl]amino]-benzenesulfonamide]: the IC50 in assay [2] was 0.191 µM; in assay [1] (setting [4]) it was greater than 100 µM.
For `Nc1ccc(F)c(C(=O)n2nc(Nc3ccc(S(N)(=O)=O)cc3)nc2N)c1F` [Cpd 55, 4-[[5-amino-1-(3-amino-2,6-difluorobenzoyl)-1H-1,2,4-triazol-3-yl]amino]-benzenesulfonamide] the same measures were 0.577 µM and 16.1 µM.
For `Cc1nc(C)c(C(=O)n2nc(Nc3ccc(S(N)(=O)=O)cc3)nc2N)s1` [Cpd 34, 4-[[5-amino-1-[(2,4-dimethyl-5-thiazolyl)carbonyl]-1H-1,2,4-triazol-3-yl]amino]-benzenesulfonamide] the same measures were 0.068 µM and greater than 100 µM.
For `Nc1nc(Nc2ccc(S(N)(=O)=O)cc2)nn1C(=O)c1c(F)cccc1Cl` [Cpd 70, 4-[[5-amino-1-(2-chloro-6-fluorobenzoyl)-1H-1,2,4-triazol-3-yl]amino]-benzenesulfonamide] the same measures were 0.911 µM and greater than 100 µM.
For `Nc1nc(Nc2ccc(S(=O)(=O)N3CCCCC3)cc2)nn1C(=O)c1cccs1` [Cpd 23, N^3-[4-(1-piperidinylsulfonyl)phenyl]-1-(2-thienylcarbonyl)-1H-1,2,4-triazole-3,5-diamine], the half-maximal inhibitory concentration (IC50) in assay [1] (setting [5]) was greater than 100 µM.
Consider `CN1CCN(c2ccc(Nc3nc(N)n(C(=O)c4c(F)cccc4F)n3)cc2)CC1` [Cpd 71, 1-(2,6-difluorobenzoyl)-N^3-[4-(4-methyl-1-piperazinyl)phenyl]-1H-1,2,4-triazole-3,5-diamine], for which the half-inhibitory concentration (IC50) in assay [1] (setting [4]) was greater than 10 µM.
Consider `Nc1nc(Nc2ccc(S(N)(=O)=O)cc2)nn1C(=O)c1ccsc1` [Cpd 30, 4-[[5-amino-1-(3-thienylcarbonyl)-1H-1,2,4-triazol-3-yl]amino]-benzenesulfonamide], for which the IC50 in assay [1] (setting [5]) worked out at 9.6 µM.
For `CNS(=O)(=O)c1ccc(Nc2nc(N)n(C(=O)c3sccc3C)n2)cc1` [Cpd 82, 4-[[5-amino-1-[(3-methyl-2-thienyl)carbonyl]-1H-1,2,4-triazol-3-yl]amino]-N-methyl-benzenesulfonamide], the results for the 50% inhibitory concentration (IC50) in assay [2], in assay [3] (setting [6]) and in assay [1] (setting [4]) were 0.022 µM, 0.118 µM and greater than 100 µM, respectively.
Turning to `Nc1nc(Nc2ccc(S(N)(=O)=O)cc2)nn1C(=O)c1sccc1Cl` [Cpd 17, 4-[[5-amino-1-[(3-chloro-2-thienyl)carbonyl]-1H-1,2,4-triazol-3-yl]amino]-benzenesulfonamide], the half-maximal inhibitory concentration (IC50) in assay [1] (setting [5]) turned out to be 4.13 µM.
With `Cc1ccc(F)c(C(=O)n2nc(N)nc2Nc2ccc(S(N)(=O)=O)cc2)c1F` [Cpd 123, 4-[[3-amino-1-(2,6-difluoro-3-methylbenzoyl)-1H-1,2,4-triazol-5-yl]amino]-benzenesulfonamide], the IC50 in assay [2] was 5.52 µM; in assay [1] (setting [4]), greater than 100 µM.
As to `CC(O)c1ccc(F)c(C(=O)n2nc(Nc3ccc(S(N)(=O)=O)cc3)nc2N)c1F` (stereo not shown) [Cpd 58, 4-[[5-amino-1-[2,6-difluoro-3-(1-hydroxyethyl)benzoyl]-1H-1,2,4-triazol-3-yl]amino]-benzenesulfonamide], the 50% inhibitory concentration (IC50) in assay [1] (setting [4]) is greater than 10 µM.
As to `Cc1cc(C)c(C(=O)n2nc(Nc3ccc(S(=O)(=O)Nc4ccccn4)cc3)nc2N)s1` [Cpd 120, 4-[[5-amino-1-[(3,5-dimethyl-2-thienyl)carbonyl]-1H-1,2,4-triazol-3-yl]amino]-N-(2-pyridinyl)-benzenesulfonamide], the concentration for half-maximal inhibition (IC50) was 1 µM in assay [3] (Table 1, read-out: HER2 IC50); 1 µM in assay [3] (setting [6]); greater than 10 µM in assay [1] (setting [4]).
As for `Nc1nc(Nc2ccc(S(=O)(=O)Nc3ccccn3)cc2)nn1C(=O)c1c(F)cccc1F` [Cpd 118, 4-[[5-amino-1-(2,6-difluorobenzoyl)-1H-1,2,4-triazol-3-yl]amino]-N-(2-pyridinyl)-benzenesulfonamide], the 50% inhibitory concentration (IC50) in assay [1] (setting [4]) is greater than 100 µM.
